Assay: Reactivity of valsartan under EMR curing conditions
Format: physicochemical
Details: mixed with dextramate, PEGDA, Irgacure; cured for 10 minutes
Experimental: Dextramate (24.2 mL of a 23.1 w/w % solution), PEGDA (16.3 mL of a 8.6 w/w % solution), Irgacure (14 mL of a 0.5 w/w % solution), and valsartan (2.82 mL or 1.41 mL of a 24.8 w/w % solution or 2.82 mL of a 1:10 dilution of a 24.8 w/w % solution) are mixed together. The mixture is cured for 10 minutes. After curing, 100 mL of dH2O is added to the cured product to create a swelled gel.

## CCCCC(=O)N(Cc1ccc(-c2ccccc2-c2nnn[nH]2)cc1)[C@H](C(=O)O)C(C)C [valsartan]
  reactivity under the curing conditions: does not exhibit reactivity

Source: patent publication US20220175667A1, “Extracellular Matrices, Uses Thereof, and Methods of Making Extracellular Matrices” (Johns Hopkins University, priority 2019, published 2022)
